Test results: patent publication US8778966B2, “Quinolinone derivatives as PARP and tank inhibitors” (Janssen Pharmaceutica, NV, priority 2007, dated 2014)

What was measured:
Human PARP-1 enzyme = target: T1, Human PARP-1 enzyme (Homo sapiens, UniProt P09874); experiment: In vitro Scintillation Proximity Assay (SPA) for PARP-1 inhibitory activity; format: biochemical; conditions: read-out: in vitro SPA assay PARP-1 pIC50 (converted)
T1 construct: purchased Trevigen
Summary of the method: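 SPA assay: nicked-DNA-activated PARP-1 (0.1–0.2 μg/ml) ADP-ribosylates biotinylated histones (2 μg/ml) using [3H]-NAD+, 20 min at RT in Tris pH 8/DTT/MgCl2, stopped with 2 mM NAD+. Blank-subtracted cpm expressed as % control; IC50 by linear interpolation, reported as pIC50 (10−5 to 3×10−9 M tested).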

PC-3 cells = experiment: Antiproliferative activity, Alamar Blue assay, PC-3 cells; format: cell-based, human; conditions: Homo sapiens, PC-3, PC3 cells, Alamar Blue; read-out: PC3 antiproliferative activity pIC50 (converted)
Summary of the method: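 Resazurin-based fluorescence (540 nm ex/590 nm em) measured after 4-day compound treatment plus 24 hrs dye incubation at 37° C. Cells plated at 4.5×10^3 cells/ml, adhered 24 hr first. pIC50 from probit-derived IC50 on % viable cells versus untreated, triplicate wells.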

T1 sequence (P09874 whole entry): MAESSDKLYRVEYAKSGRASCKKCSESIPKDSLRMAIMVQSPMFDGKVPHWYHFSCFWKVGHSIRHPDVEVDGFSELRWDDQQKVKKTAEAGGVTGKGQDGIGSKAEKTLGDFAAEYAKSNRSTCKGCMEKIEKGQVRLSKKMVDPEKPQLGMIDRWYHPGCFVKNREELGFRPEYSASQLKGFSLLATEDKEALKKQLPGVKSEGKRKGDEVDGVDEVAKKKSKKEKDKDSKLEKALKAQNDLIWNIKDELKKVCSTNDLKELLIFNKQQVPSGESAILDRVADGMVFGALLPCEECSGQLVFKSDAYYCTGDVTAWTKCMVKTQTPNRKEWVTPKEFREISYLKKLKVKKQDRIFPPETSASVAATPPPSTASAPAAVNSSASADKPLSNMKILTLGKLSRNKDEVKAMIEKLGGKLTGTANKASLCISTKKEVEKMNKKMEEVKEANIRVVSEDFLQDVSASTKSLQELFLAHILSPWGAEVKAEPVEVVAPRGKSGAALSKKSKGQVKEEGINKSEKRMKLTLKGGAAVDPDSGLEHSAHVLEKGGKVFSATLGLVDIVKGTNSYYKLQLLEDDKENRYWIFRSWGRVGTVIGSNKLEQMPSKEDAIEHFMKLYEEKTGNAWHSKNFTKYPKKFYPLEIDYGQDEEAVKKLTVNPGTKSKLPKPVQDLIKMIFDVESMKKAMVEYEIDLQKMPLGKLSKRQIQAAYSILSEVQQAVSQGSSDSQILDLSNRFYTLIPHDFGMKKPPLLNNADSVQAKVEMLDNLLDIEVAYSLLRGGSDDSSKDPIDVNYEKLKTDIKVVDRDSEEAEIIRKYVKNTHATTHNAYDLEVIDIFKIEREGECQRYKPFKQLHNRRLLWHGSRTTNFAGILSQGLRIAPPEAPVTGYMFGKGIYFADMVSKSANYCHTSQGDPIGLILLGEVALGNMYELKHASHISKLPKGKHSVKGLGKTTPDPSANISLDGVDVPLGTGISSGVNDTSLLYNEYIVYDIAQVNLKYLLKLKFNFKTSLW

| SMILES | IC50 (Human PARP-1 enzyme) [nM] | IC50 (PC-3 cells) [nM] |
| --- | --- | --- |
| CCc1cc2ccc(C(C)(C#N)Cc3nc(Cl)cc(N(C)C)n3)cc2[nH]c1=O (stereo not shown) [Compound 359] | 79.4 | 501 |
| CCc1cc2ccc(C(C)(C#N)Cc3cc(OCCOC)nc(C)n3)cc2[nH]c1=O (stereo not shown) [Compound 363] | 158 | 5010 |
| CCc1cc2ccc(C(C)(C#N)Cc3cc(N(C)C)nc(Cl)n3)cc2[nH]c1=O (stereo not shown) [Compound 364] | 158 | 794 |
| CCc1cc2ccc(C(C)(C#N)Cc3cc(OCCOC)nc(Cl)n3)cc2[nH]c1=O (stereo not shown) [Compound 367] | 79.4 | 3980 |
| CCc1cc2ccc(C(C)(C#N)Cc3nc(C)cc(C)n3)cc2[nH]c1=O (stereo not shown) [Compound 368] | 316 | 1260 |
| CCc1cc2ccc(C(C)(C#N)Cc3nc(Cl)cc(OCCOC)n3)cc2[nH]c1=O (stereo not shown) [Compound 370] | 200 | 2510 |
| CCc1cc2ccc(C(C)(C#N)Cc3cc(Cl)nc(Cl)c3)cc2[nH]c1=O (stereo not shown) [Compound 372] | 100 | 501 |
| CCc1cc2ccc(C(C)(C#N)CC3CCc4ccccc4O3)cc2[nH]c1=O (stereo not shown) [Compound 399] | 316 | 631 |

The remaining lines, values ahead:

| IC50 (Human PARP-1 enzyme) [nM] | IC50 (PC-3 cells) [nM] | SMILES |
| --- | --- | --- |
| 100 | 2510 | CCc1cc2ccc(C(C)(C#N)Cc3ccc(OC)nc3)cc2[nH]c1=O (stereo not shown) [Compound 352] |
| 79.4 | 251 | CCc1cc2ccc(C(C)(C#N)Cc3cccc(OC)n3)cc2[nH]c1=O (stereo not shown) [Compound 353] |
| 126 | 794 | CCc1cc2ccc(C(C)(C#N)Cc3cnc(OC)nc3Cl)cc2[nH]c1=O (stereo not shown) [Compound 356] |
| 79.4 | 398 | CCc1cc2ccc(C(C)(C#N)Cc3cnc(OC)nc3OC)cc2[nH]c1=O (stereo not shown) [Compound 357] |
| 50.1 | 2510 | CCc1cc2ccc(C(C)(C#N)Cc3cc(OC)nc(OC)n3)cc2[nH]c1=O (stereo not shown) [Compound 358] |
| 100 | 1260 | CCc1cc2ccc(C(C)(C#N)Cc3nccc(OC)n3)cc2[nH]c1=O (stereo not shown) [Compound 360] |
| 126 | 631 | CCc1cc2ccc(C(C)(C#N)Cc3cc(OC)nc(C)n3)cc2[nH]c1=O (stereo not shown) [Compound 366] |
| 126 | 6310 | CCc1cc2ccc(C(C)(C#N)Cc3nccc(OCCOC)n3)cc2[nH]c1=O (stereo not shown) [Compound 369] |
| 100 | 10000 | CCc1cc2ccc(C(C)(C#N)Cc3cc(OC)ccn3)cc2[nH]c1=O (stereo not shown) [Compound 373] |
